Like-named read-outs stand apart in the source and are kept apart here.
Columns and labels:
various polymerases = assay: Effect of MnCl2 on incorporation of terminal-phosphate labeled nucleotide on oligo dT/poly dA; format: biochemical; conditions: 10 uM nucleotide, 60° C.
Description: Oligo dT (35mer) was annealed with poly dA by mixing equal volumes of each at 20 uM conc, and incubating at 80° C. for 4 min and instant cooling on ice. 1 ul of this solution was mixed into a 20 ul reaction containing 25 mM Hepes, pH 8.0, 0.01% Tween-20, 10 uM dT4P-DDAO, 0.005 u/ul BAP, a polymerase at concentrations shown in FIG. 7 and various concentrations of MnCl2—and MgCl2.

[1] = system: Thermo Sequenase I DNA polymerase; assay: Relative incorporation of phosphate labeled versus base labeled nucleotides in magnesium or manganese buffer; format: biochemical; conditions: 5 mM MnCl2 vs 5 mM MgCl2, 1 μM nucleotide, 50 degrees C., 10 minutes
Description: Reactions (10 μl, 50 degrees C., 10 minutes) contained 1× reaction buffer (25 mM HEPES 8.5, 0.01% tween-20), 3 μg activated DNA (Chromosomal DNA), 5 mM either MnCl2 (circles) or MgCl2 (squares), 1 μM either FAM-TAM-11-ddTTP (dashed lines) or ddT4P-DDAO (solid lines), with a serial 4 fold dilution of Thermo Sequenase I™ DNA polymerase from 10 units per reaction down to 0.01 units per reaction. Results (FIG. 3) were plotted out both on a linear scale and logarithmic scale to show both linearity with enzyme and relative incorporation efficiency.

[2] = system: cloned DNA polymerase I genetically engineered to eliminate 3′-5′ exonuclease activity, 5′-3′ exonuclease activity and discrimination against …; assay: Template-directed incorporation of gamma phosphate-labeled ddNTP with shrimp alkaline phosphatase, fluorescence read-out; format: biochemical; conditions: 2 μM nucleotide, 5 mM MgCl2, 0.25 mM MnCl2, shrimp alkaline phosphatase
Description: Reactions were assembled at room temperature (23° C.) using the dideoxynucleotide of Example (1).
Referring now to FIG. 1, for template 1 (SEQ ID NO: 2) in the present example, DNA polymerase would be expected to extend the primer with labeled ddGTP. Similarly, for template 2 (SEQ ID NO: 3) in FIG. 1, DNA polymerase would be expected to extend the primer with ddATP, but not with labeled ddGTP.
(§1) Reaction conditions: A 70 μl reaction containing 25 mM Tris, pH 8.0, 5% glycerol 5 mM MgCl2, 0.5 mM beta-mercaptoethanol, 0.01% tween-20, 0.25 units shrimp alkaline phosphatase, 100 nM primer annealed to template (the next template nucleotide is either dCMP or dTMP, as indicated), and 2 μM ddGTP-CF3-Coumarin was assembled in a quartz fluorescence ultra-microcuvet in a LS-55 Luminescence Spectrometer (Perkin Elmer), operated in time drive mode. Excitation and emission wavelengths are 390 nm and 500 nm respectively. Slit widths were 5 nm for excitation slits, 15 nm for emission slits. The reaction was initiated by the addition of 0.35 μl (11 units) of a cloned DNA polymerase I genetically engineered to eliminate 3′-5′ exonuclease activity, 5′-3′ exonuclease activity and discrimination against dideoxynucleotides and 0.25 mM MnCl2.
Reactions were assembled at room temperature (23° C.) using the dideoxynucleotide of Example (2).
Referring now to FIG. 2, for template 2 (SEQ ID NO: 3) in the present example, DNA polymerase would be expected to extend the primer with labeled ddATP. Similarly, for template 1 (SEQ ID NO: 2) in FIG. 2, DNA polymerase would be expected to extend the primer with ddGTP, but not with labeled ddATP.
as §1, with “template,” for “template (the next template nucleotide is either dCMP or dTMP, as indicated),”, “ddATP-CN-Coumarin” for “ddGTP-CF3-Coumarin”, “410” for “390”, “450” for “500”

Phi 29 exo-polymerase = conditions: 0.7 mM MnCl2 only, 25 uM nucleotide, template SEQ ID NO: 4 (FIG. 6)
Chain of Phi 29 exo-polymerase (P03680 190-575 limits assumed): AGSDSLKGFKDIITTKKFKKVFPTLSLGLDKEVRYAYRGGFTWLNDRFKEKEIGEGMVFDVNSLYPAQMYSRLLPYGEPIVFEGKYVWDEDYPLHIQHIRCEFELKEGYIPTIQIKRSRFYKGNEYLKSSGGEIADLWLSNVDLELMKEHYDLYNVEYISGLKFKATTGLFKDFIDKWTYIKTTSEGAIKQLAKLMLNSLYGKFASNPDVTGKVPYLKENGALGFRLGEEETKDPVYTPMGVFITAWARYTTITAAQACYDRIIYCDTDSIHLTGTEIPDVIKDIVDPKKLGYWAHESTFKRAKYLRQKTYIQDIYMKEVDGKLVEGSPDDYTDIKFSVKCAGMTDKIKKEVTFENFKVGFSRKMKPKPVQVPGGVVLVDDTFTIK
Description: Using the same primer as in example 9 and template (SEQ ID NO: 4), incorporation of dCTP-DAH-ROX at various times after the reaction was initiated, was investigated. Assay conditions were as follows: Total reaction volume: 30 ul containing 100 nM primer/template, 100 nM Phi 29 exo-polymerase, 50 mM Tris pH 7.5, 75 mM KCl, 0.7 mM MnCl2, 0.1 mM DTT, 0.3 mg/ml BSA. Reaction was initiated by addition of ROX-dCTP to a conc. of 25 uM.

[3] = Primer: Template 1 (SEQ ID NO: 2), next template nucleotide dC
[4] = Primer: Template 2 (SEQ ID NO: 3), next template nucleotide dT

Molecule: Cc1cn([C@H]2C[C@H](O)[C@@H](COP(=O)(O)OP(=O)(O)OP(=O)(O)OP(=O)(O)Oc3ccc4c(c3)C(C)(C)C3=C(Cl)C(=O)C(Cl)=CC3=N4)O2)c(=O)[nH]c1=O [dT4P-DDAO, 2′-Deoxythymidine-5′-(δ-7-(9H-(1,3-dichloro-9,9-dimethylacridin-2-one)))tetraphosphate]
- rate of incorporation in the absence of MnCl2 (various polymerases; 15 or 30 minutes (FIG. 7)): extremely slow
- effect of MnCl2, alone or in the presence of MgCl2, on the rate of incorporation (various polymerases; 15 or 30 minutes, all the polymerases tested (FIG. 7)): major positive impact on the rate of incorporation

Molecule: Cc1cn([C@H]2CC[C@@H](COP(=O)(O)OP(=O)(O)OP(=O)(O)OP(=O)(O)Oc3ccc4c(c3)C(C)(C)C3=C(Cl)C(=O)C(Cl)=CC3=N4)O2)c(=O)[nH]c1=O [ddT4P-DDAO, δ-9H(1,3-dichloro-9,9-dimethylacridin-2-one-7-yl)-dideoxythymidine-5′-tetraphosphate]
- increase in incorporation efficiency in the manganese buffer relative to the magnesium buffer [1]: 28 fold

Molecule: N#Cc1cc2ccc(OP(=O)(O)OP(=O)(O)OP(=O)(O)OC[C@@H]3CC[C@H](n4cnc5c(N)ncnc54)O3)cc2oc1=O [gamma labeled ddATP, γ-(3-cyanocoumarinyl)dideoxyadenosine-5′-triphosphate]
- dye emission [2, 3]: No detectable dye emission
- dye emission [2, 4]: dye emission was detected

Molecule: Nc1nc2c(ncn2[C@H]2CC[C@@H](COP(=O)(O)OP(=O)(O)OP(=O)(O)Oc3ccc4c(C(F)(F)F)cc(=O)oc4c3)O2)c(=O)[nH]1 [gamma labeled ddGTP, γ-(4-trifluoromethylcoumarinyl)dideoxyguanosine-5′-triphosphate]
- dye emission [2, 3]: dye emission was detected
- dye emission [2, 4]: No detectable dye emission

Molecule: ROX-amidoheptyl-gamma-amido-deoxycytidine-triphosphate [dCTP-DAH-ROX]
- misincorporation (Phi 29 exo-polymerase): no misincorporation takes place
- misincorporation (Phi 29 exo-polymerase; listed as dCTP-γ-ROX): No misincorporation was observed
